According to US9340532B2, “Methods and compositions for inhibiting CNKSR1” (PHUSIS THERAPEUTICS, INC., priority 2012, dated 2016):
Where two headings read alike, the source gives them in different places.

Assays:
[1] = test system: H226 (KRAS wildtype cell line); assay: Proliferation Assay H226; format: cell-based; settings: Homo sapiens, NCI-H226, n = 1
Experimental: (§1) The isogenic KRAS lines harboring G12D, G12C, and G12V were obtained from Horizon Discovery labs on a one year lease. These cells were cultured in McCoys media with 10% FBS to 80% confluency. Cells were then released from flasks via trypsinization and plated into 96-well plates at an initial density range of 2000 cells per well. Cells were allowed 24 hours to attach, and then the agents were added to the culture media at a range of concentrations from 0-100 μM. Cells were incubated for 72 hours with the drugs, and then viability was assessed using an MTS viability assay. Cells were exposed to MTS reagent (Promega) dissolved in PBS (Hyclone) at a concentration of 200 μL reagent/mL media for 2 hours. Absorbance was then read at 490 nm, and viability was expressed as a percentage normalized between the negative control (no cells plated) and the condition of cells with no drug added (100% viability) normalized as the upper limit of viability.
(§2) Our panel of 30 cell lines and an extensive characterization were obtained from Dr. John Minna (UTSW). All cell lines were cultured in RPMI 1640 with 10% FBS. Cells were treated with concentrations of agents at concentrations 0.01 to 50 μM and evaluated as described above. IC50's were determined using Excelfit.

[2] = test system: H1975 (KRAS wildtype cell line); assay: Proliferation Assay H1975; format: cell-based; settings: Homo sapiens, NCI-H1975, n = 1
Experimental: as §1, §2

CNK1 PH-domain (CNKSR1) = target: T1, CNK1 PH-domain (CNKSR1) (Homo sapiens, UniProt Q969H4); assay: SPR binding assay (Biacore T100), CNK1 PH-domain; settings: for Surface Plasmon Resonance CNKSR1 binding (RU max) / Surface Plasmon Resonance CNKSR1 stability (RU max post-injection): date 12 09 13
T1 construct: The PH-domain His-fusion proteins (CNK1 and AKT1) were expressed and immobilized on a NTA chip; made in house
T1 sequence (Q969H4 403-502 limits assumed): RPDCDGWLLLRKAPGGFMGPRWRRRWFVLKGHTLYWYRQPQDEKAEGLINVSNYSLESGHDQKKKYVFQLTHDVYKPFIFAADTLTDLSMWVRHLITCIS
Experimental: (§3) All interaction analyses were done with a Biacore T100 Control Software v3.2, and BIAevaluation v4.1 analysis software (Biacore). The PH-domain His-fusion proteins (CNK1 and AKT1) were expressed and immobilized on a NTA chip to a level of 10,000 response units or less. Small molecule analytes at concentrations ranging from 50 μM to 0.010 μM were injected at a high flow rate (30 μL/min) DMSO concentrations in all samples and running buffer were 1-5% (v/v).
Other docking was performed using modeling algorithms with state-of-the-art commercial drug discovery software (Schrodinger suite). […] Additionally, ligand-based approaches provided an alternative to structure based drug discovery. Ligand-based virtual screening methodologies can take into account shape and electrostatics (like ROCS) and the pharmacophoric features (acceptor, donor, hydrophobic, aromatic, etc.) of its functional groups. […] SPR interaction analyses of all other compounds was undertaken using a Biacore T100 with Control and Evaluation software kit.

[3] = test system: H1373 (KRAS mutant cell line); assay: Proliferation Assay H1373; format: cell-based; settings: Homo sapiens, NCI-H1373, N = 2 experiments
Experimental: as §1, §2

[4] = test system: A549 (KRAS mutant cell line); assay: Proliferation Assay A549; format: cell-based; settings: Homo sapiens, N = 2 experiments
Experimental: as §1, §2

AKT1 PH-domain = target: T2, AKT1 PH-domain (Homo sapiens, UniProt P31749); assay: SPR binding assay (Biacore T100), AKT1 PH-domain; settings: for Kd: read-out: AKT KD
T2 construct: The PH-domain His-fusion proteins (CNK1 and AKT1) were expressed and immobilized on a NTA chip; made in house
T2 sequence (P31749 5-108 limits assumed): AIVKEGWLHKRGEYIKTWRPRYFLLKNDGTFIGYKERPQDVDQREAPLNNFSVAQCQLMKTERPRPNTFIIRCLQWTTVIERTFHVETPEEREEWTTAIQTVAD
Experimental: as §3
A commercially available docking package, GOLD (GOLD [3.2], CCDC: Cambridge, UK, 2007) was used to evaluate the docking of compounds 1-7 into the binding pocket, see e.g. Table 5. Other docking was performed using modeling algorithms with state-of-the-art commercial drug discovery software (Schrodinger suite). GLIDE was chosen as the docking algorithm used to select and optimize compounds, providing a GlideScore as a rough estimate of binding affinity that was used to rank and select the best compounds. Additionally, ligand-based approaches provided an alternative to structure based drug discovery. Ligand-based virtual screening methodologies can take into account shape and electrostatics (like ROCS) and the pharmacophoric features (acceptor, donor, hydrophobic, aromatic, etc.) of its functional groups. Inositol tetraphosphate (IP4) binding to the PH-domain of CNKSR1 provided a good starting point for shape screening. Both structure-based and ligand-based approaches were used to find novel compounds (Table 7) and to refine and improve lead compounds (Tables 8, and 9). SPR interaction analyses for Compounds 1 through 7 were performed with a Biacore 2000, using Biacore2000 Control Software v3.2 and BIAevaluation v4.1 analysis software (Biacore) as described in Mol Cancer Ther 7:2621 (2008). SPR interaction analyses of all other compounds was undertaken using a Biacore T100 with Control and Evaluation software kit.

IC50 [1] | IC50 [2] | Surface Plasmon Resonance CNKSR1 binding (RU max) (CNK1 PH-domain (CNKSR1)) | Surface Plasmon Resonance CNKSR1 stability (RU max post-injection) (CNK1 PH-domain (CNKSR1)) | IC50 [3] | IC50 [4] | AKT KD (AKT1 PH-domain; Table 7, curated diversity set) | further results | Structure (SMILES)
> 100 µM | 80 µM | −0.695 RU * 100/Da | −0.158 RU * 100/Da | > 100 µM | 90 µM | – | Kd (CNK1 PH-domain (CNKSR1); Table 6, read-out: CNKS KD): 51.3 µM; Kd (AKT1 PH-domain; Table 6): 34.2 µM | Cc1ccc(-c2csc(Cn3nc(NS(=O)(=O)c4cccs4)c4ccccc4c3=O)n2)cc1 [Compound 5]
– | – | – | – | – | – | Bound | – | COc1ccc(OC)c(-c2cc(C(=O)O)c3nc(C)[nH]c3n2)c1 [Compound 34]
– | – | – | – | – | – | Bound | – | Cc1c(Cl)ccc2c(C(=O)O)cc(-c3cccnc3)nc12 [Compound 64]
– | – | – | – | – | – | Bound | – | Nc1cccc(-c2cc(C(=O)O)c3cc(Cl)ccc3n2)c1 [Compound 66]
– | – | – | – | – | – | Bound | – | O=C(O)CCc1ccc(-c2ccc(Br)cc2)n1CCC(=O)O [Compound 67]
– | – | – | – | – | – | – | Kd (CNK1 PH-domain (CNKSR1); Table 6, read-out: CNKS KD): > 100 µM | Cc1ccc(-c2csc(Cn3nc(CC4CN=CCO4)c4ccccc4c3=O)n2)cc1 (stereo not shown) [Compound 80]
> 100 µM | 80 µM | 0.316 RU * 100/Da | 0.154 RU * 100/Da | 95 µM | 100 µM | – | Kd (CNK1 PH-domain (CNKSR1); Table 6, read-out: CNKS KD): 109 µM | Cc1ccc(-c2csc(Cn3nc(CC(=O)NCCC(N)=O)c4ccccc4c3=O)n2)cc1 [Compound 81]
> 100 µM | 70 µM | 1.304 RU * 100/Da | 0.544 RU * 100/Da | 65 µM | 51 µM | – | – | Cc1ccc(-c2csc(Cn3nc(CC(=O)NCC(N)=O)c4ccccc4c3=O)n2)cc1 [Compound 82]
> 100 µM | > 100 µM | – | – | > 100 µM | > 100 µM | – | AKT KD (AKT1 PH-domain; Table 8): No binding | COc1c(/C=C/C(=O)O)cc(NS(=O)(=O)c2cccs2)c2c1OCO2 [Compound 84, (E)-3-(4-methoxy-7-(thiophene-2-sulfonamido)benzo[d][1,3]dioxol-5-yl)acrylic acid]
> 100 µM | > 100 µM | 1.026 RU * 100/Da | 1.515 RU * 100/Da | > 100 µM | > 100 µM | – | Kd (CNK1 PH-domain (CNKSR1); Table 8, read-out: CNK KD): > 500 µM; Kd (AKT1 PH-domain; Table 8): > 500 µM | CCOC(=O)CCc1cc(NS(=O)(=O)c2cccs2)c2c(c1OC)OCO2 [Compound 85, ethyl 3-(4-methoxy-7-(thiophene-2-sulfonamido)benzo[d][1,3]dioxol-5-yl)propanoate]
> 100 µM | > 100 µM | 1.350 RU * 100/Da | 1.401 RU * 100/Da | > 100 µM | > 100 µM | – | Kd (CNK1 PH-domain (CNKSR1); Table 8, read-out: CNK KD): 3.37 µM | O=C(O)/C=C/c1cc(NS(=O)(=O)c2cccs2)c2c(c1O)OCO2 [Compound 89, (E)-3-(4-hydroxy-7-(thiophene-2-sulfonamido)benzo[d][1,3]dioxol-5-yl)acrylic acid]
